Consider four compounds from US12691114B2, “Compositions for inhibition of herpesviruses” (The Medical College of Wisconsin, Inc., priority 2020, dated 2026).

Like-named read-outs stand apart in the source and are kept apart here.

Assay [1] concerns HCMV Towne (pp28-luciferase). In words: pp28-luciferase HCMV Towne assay in HFFs, luciferase activity at 72 hpi. In kind it is cell-based, human cytomegalovirus. An excerpt:
(§1) A GCV-resistant HCMV pp28-luciferase that contains a C607Y mutation in UL97 was reported^37. The HCMV TB40 strain was obtained from ATCC (VR-1578). Clinical isolates of Human Herpesvirus 1 and 2 (HSV1, HSV2) were collected from the Johns Hopkins Microbiology laboratory without identifiers that could link them to a specific patient. Mouse CMV (MCMV) Smith strain (ATCC VR-1399) was used for infection of MEFs.
(§2) Luciferase activity: Cell lysates were collected at 72 hpi and luciferase activity was determined using the Glomax-Multi+Detection System (Promega, Madison, WI) as described previously^20.
(§3) HCMV inhibition was measured by luciferase activity of pp28-recombinant Towne and pp28 GCV-resistant Towne strains of HCMV (72 hpi) and by plaque reduction using HCMV Towne or TB40 (10 days). Viral protein expression was measured by Western blot.

The test system of assay [2] is GCV-resistant HCMV Towne (C607Y mutation in UL97). In words: microbe, parasite or virus in culture. In kind it is cell-based, human cytomegalovirus.
Excerpt: as §1, §2, §3

The test system of assay [3] is Mouse CMV (MCMV) Smith strain. In words: Plaque assay, mouse CMV in MEFs. In kind it is cell-based, mouse cytomegalovirus. To be noted: plaque reduction; for EC50: MEFs, NA = Not active.
Excerpt: as §1, with “Viruses and antiviral assays: A recombinant pp28-luciferase Towne HCMV strain expressing luciferase under the control of the UL99 (pp28) late promoter was reported to provide a highly-sensitive and reproducible reporter for drug screening^20. A GCV-resistant” for “A GCV-resistant”
(§4) Plaque reduction assay: HFFs were seeded into 12-well plates (2×10^5 cells/well) and infected with HCMV TB40 at approximately 100 plaques/well. After 90 min, media were aspirated, and DMEM containing 0.5% carboxymethyl-cellulose (CMC), 4% fetal bovine serum (FBS), and drugs were added into duplicate wells. Following incubation at 37° C. for 10-12 days the overlay was removed, and plaques were counted after crystal violet staining. For HSV1 and HSV2 replication in Vero cells, the adsorption time was 60 min and plaques were counted after 36 h. Plaque assays in MEFs were completed after 3 days.
(§5) Inhibition of other herpesviruses: Inhibition of herpes simplex 1 and 2 (HSV1, HSV2), Epstein Barr virus (EBV) and mouse CMV (MCMV) was tested with the five compounds. Plaque reductions assays were used for HSV1, HSV2 and MCMV. Inhibition of lytic EBV replication was measured by real-time PCR in AKATA cells following IgG induction. Only MLS8554 was active against HSV1, HSV2 and MCMV (Table 2).

Another assay relates to HCMV TB40. In words: Drug combination with letermovir, plaque assay TB40, Bliss model. In kind it is cell-based, human cytomegalovirus. The settings on record: read-out: EC50 (μM) of Compound 2. How it is done:
Drug combination and analysis: These experiments were performed as previously reported^40. The combination of GCV and each compound was tested using the pp28-luciferase. Briefly, 2×10^6 HFFs/plate were seeded in 96-well plates and infected with the pp28-luciferase Towne HCMV strain (MOI=1). First, a dose response curve was generated for each drug individually to determine its EC50. Then, drugs were combined at twice their EC50, diluted in DMEM with 4% FBS, followed by serial dilution and added together after infection. Luciferase activity of the combination and each drug individually was quantified at 72 hpi. The combination of letermovir and each of the new compounds was tested by the plaque assay using TB40. The same principle applied in this assay for the drug combination effect, and plaques were counted at 8 dpi. The Bliss model was used to calculate the effect of each drug combination on pp28-luciferase activity and plaque reduction. In this model, drug combination represents the product of two probabilistically independent events as described in the following equation^41.
[formula] Where D is the drug concentration, m is the slope, and EC50 is the effective concentration resulting in 50% virus inhibition. The combined effect of two inhibitors (Fu, fractional unaffected) is computed as the product of individual effects of the two inhibitors, Fu1 and Fu2. If the ratio of observed fold inhibition divided by the expected fold inhibition is greater than 1, the compounds are synergistic. If the ratio is less than 1, the combination is considered antagonistic, and if it equals to 1 the combination is additive.
Pattern of drug combination with GCV and letermovir: The effect of each compound alone or in combination with GCV or letermovir was tested in HCMV-infected HFFs. […] A ratio of observed fold inhibition divided by the expected fold inhibition of >1 was considered drug synergy, <1 as drug antagonism, and =1 as additive. For letermovir and its combination with each of the five compounds the EC50 was determined based on plaque assay. The combination of GCV and 2955 was also tested by plaque assay. All other combinations and Bliss coefficients were measured by pp28- luciferase.

The test system of assay [4] is HCMV Towne viral proteins (IE1/2, pp65, UL84, UL44). The experiment in a line: Immunoblot of viral protein expression in infected HFFs. To be noted: HCMV Towne MOI of 1 PFU/cell, 72 hpi. In kind it is cell-based, human cytomegalovirus. On the procedure:
SDS-polyacrylamide gel electrophoresis and immunoblot analysis: Cell lysates containing equal amount of proteins were mixed with an equal volume of sample buffer (125 mM Tris-HCL, pH 6.8, 4% SDS, 20% glycerol and 5% β-mercaptoethanol) and boiled at 100° C. for 10 min. Denatured proteins were resolved in Tris-glycine polyacrylamide gels (8-10%) and transferred to polyvinylidine difluoride (PVDF) membranes (Bio-Rad Laboratories, Hercules, CA) by electroblotting. Membranes were incubated in blocking solution [5% w/v non-fat dry milk and 0.1% Tween-20 in PBS (PBST)] for 1 h, washed with PBST, and incubated with primary antibodies at 4° C. overnight. Membranes were washed with PBST and incubated with horseradish peroxidase-conjugated secondary antibodies in PBST for 1 h at room temperature. Following washing with PBST, protein bands were visualized by chemiluminescence using SuperSignal West Dura and Pico reagents (Pierce Chemical, Rockford, IL).
Antibodies: The following antibodies were used—Mouse monoclonal anti-HCMV IE1 & IE2 (MAB810, Millipore, Billerica, MA), mouse monoclonal anti-HCMV UL83 (pp65, Vector Laboratories Inc., Burlingame, CA), mouse monoclonal anti-HCMV UL44, mouse monoclonal anti-HCMV UL84, and mouse anti-β-actin anti-mouse IgG (Santa Cruz Biotechnology, Santa Cruz, CA). Horseradish peroxidase (HRP)-conjugated anti-mouse IgG was from GE Healthcare (Waukesha, WI). Horseradish peroxidase (RP)-conjugated anti-rabbit IgG was from Cell Signaling (Beverly, MA).

The subject of the next assay is HSV1 clinical isolate. The experiment in a line: Plaque reduction assay, HSV1 in Vero cells. In kind it is cell-based, Human Herpesvirus 1. To be noted: plaque reduction.
Excerpt: as §1, with “Viruses and antiviral assays: A recombinant pp28-luciferase Towne HCMV strain expressing luciferase under the control of the UL99 (pp28) late promoter was reported to provide a highly-sensitive and reproducible reporter for drug screening^20. A GCV-resistant” for “A GCV-resistant”
as §4, §5

[5] abbreviates: Human betaherpesvirus 5, read-out: EC50—Towne (μM).
The mark [6] stands for this setting: Human betaherpesvirus 5, combination experiment with Letermovir.
Where [7] appears, read: pp28-luciferase Towne, HFFs, 72 hpi, read-out: EC50—Towne.
The mark [8] stands for this setting: pp28 GCV-resistant Towne, luciferase, 72 hpi, read-out: EC50—GCVR Towne.
Where [9] appears, read: combination experiment with Letermovir.

In the case of `CC(C)NC(=O)C1CCN(C(=O)c2cc3sccc3n2Cc2ccc(Cl)cc2)CC1` [NCGC2955, 1-(4-(4-chlorobenzyl)-4H-thieno[3,2-b]pyrrole-5-carbonyl)-N-isopropylpiperidine-4-carboxamide], the EC50 amounted to 4.61 ± 1.4 µM in assay [1] (setting [5]), 1000 nM in assay [3] (Murid betaherpesvirus 1) and 3.19 ± 0.17 µM in the assay on HCMV TB40 (setting [6]). Further, in assay [1] (compound after infection, MOI of 1 PFU/cell, 72 hpi), the “inhibition of luciferase activity, in words” value is listed as “did not show a full dose response”. For the same compound, the “activity against GCV-resistant HCMV, in words” value in assay [2] is on record as “inhibited”. For the same compound, the “viral protein expression by Western blot, in words” value (“viral protein expression” for short) in assay [4] is “strong reduction in viral protein expression including IE1 and IE2”.

`CCc1ccc(NC(=O)[C@H](Cc2c[nH]c3ccccc23)NC(=O)[C@@H]2Cc3ccccc3CN2)cc1` [MLS8554]: the “anti-HCMV activity, in words” value in assay [1] (all the HCMV strains used) is listed as “active”. Further, the EC50 is 0.64 ± 0.1 µM in assay [1] (setting [7]); 0.17 µM in assay [2] (setting [8]); 1780 ± 200 nM with HSV1 clinical isolate (Vero cells, NA = Not active, read-out: EC50—HSV1-C1); 11700 ± 2000 nM in assay [3]; 0.14 ± 0.02 µM with HCMV TB40 (setting [9]). Further, in assay [2], the “activity against GCV-resistant HCMV, in words” value is reported as “active”. The “activity against HSV1, in words” value with HSV1 clinical isolate is on record as “active”. The “activity against MCMV, in words” value in assay [3] is “active”. Moreover, the “viral protein expression” value in assay [4] is “reduced expression of IE2, UL44, UL84 and pp65”.

As to `Nc1c(S(=O)(=O)c2cccs2)c2nc3ccccc3nc2n1Cc1ccccc1` [MLS8091], the figures for the EC50 (in assay [1] (setting [7]); in assay [2] (setting [8]); in the assay with HCMV TB40 (setting [9])) were 0.39 µM, 0.26 ± 0.02 µM and 0.13 ± 0.05 µM, respectively. The “activity against HSV1, in words” value with HSV1 clinical isolate is on record as “no activity”. In addition, the “activity against MCMV, in words” value in assay [3] is recorded as “no activity”. In addition, the “viral protein expression” value in assay [4] was “Inhibition of all viral proteins”.

As to `CCN1CCN(CCCNC(=O)c2ccc3c(c2)sc2nc(-c4ccc(OC)cc4)cn23)CC1` [NFU1827, N-[3-(4-ethylpiperazin-1-yl)propyl]-4-(4-methoxyphenyl)-7-thia-2,5-diazatricyclo [6.4.0.02,6] dodeca-1(8),3,5,9,11-pentaene-10-carboxamide], the EC50 stood at 0.85 ± 0.1 µM in assay [1] (setting [5]); 0.84 ± 0.1 µM in assay [2] (Human betaherpesvirus 5, read-out: EC50—GCVR Towne (μM)); 0.69 ± 0.07 µM with HCMV TB40 (setting [6]). In the assay with HSV1 clinical isolate, the “activity against HSV1, in words” value was “no activity”. Also, in assay [3], the “activity against MCMV, in words” value is recorded as “no activity”. In assay [4], the “viral protein expression” value is “reduced the level of both IE1 and IE2”.
